Laboratory results reported in US20070112018A1, “Treatment of peripheral arterial occlusive disease” (priority 2005, published 2007).

Legend:
[1] = in vivo; cited from earlier work
C. pneumoniae [2] = experiment: Rabbit model of atherosclerosis accelerated by C. pneumoniae infection, cholesterol diet; conditions: C. pneumoniae-infected rabbits; rifalazil 5 mg/kg or azithromycin 30 mg/kg PO daily 1 week then twice weekly 6 weeks; 19 weeks after beginning treatment
Protocol: Thirty received three separate C. pneumoniae inoculations performed at 3-week intervals. Similarly, 15 control rabbits were intranasally inoculated with 1 mL of normal saline under the same conditions.
Nineteen weeks after beginning antibiotic treatment, the rabbits were euthanized. After euthanasia, hearts were examined histologically and by immunofluorescence. Animal serum samples were also examined for seropositivity to the infecting organism.

[3] = male, human, in vivo
Protocol: In another study, three dose levels of rifalazil were administered for the treatment of non-gonococcal urethritis in 170 male patients. Doses used were in this study were single-doses of 2.5, 12.5 mg and 25 mg. Males were between 18-45 years of age with signs or symptoms of urethritis, including urethral discharge.

[4] = 300 mg, 3 days, 2 years of follow-up; cited from earlier work
C. pneumoniae [5] = conditions: cited from earlier work

Compound	t1/2 [1]	Plaque Area Stenosis (%) (C. pneumoniae [2])	incidence of AEs considered possibly related to study drug [3] [%]	incidence of clinically significant laboratory abnormalities [3] [%]	morbidity or mortality in PAOD patients [4]	prevention of progression of lower limb atherosclerosis (C. pneumoniae [5]; daily for 28 days, C. pneumoniae seropositive men, almost 3 years)	number of invasive revascularization procedures (C. pneumoniae [5]; daily for 28 days)	soft plaque components in carotid arteries (C. pneumoniae [5]; over a 6-month period)
CN[C@H]1C(=O)N[C@@H]2Cc3ccc(cc3)Oc3cc4cc(c3O[C@@H]3O[C@H](C(=O)O)[C@@H](O)[C@H](O)[C@H]3NC(=O)CCCCCCCCC(C)C)Oc3ccc(cc3Cl)[C@@H](O)[C@@H]3NC(=O)[C@H](NC(=O)[C@@H]4NC(=O)[C@@H](NC2=O)c2cc(cc(O)c2Cl)Oc2cc1ccc2O)c1ccc(O)c(c1)-c1c(O[C@H]2O[C@H](CO)[C@@H](O)[C@H](O)[C@@H]2O)cc(O)cc1[C@@H](C(=O)NCCCN(C)C)NC3=O [Dalbavancin]	approximately 180 hours							
CC[C@H]1OC(=O)[C@H](C)[C@@H](O[C@H]2C[C@@](C)(OC)[C@@H](O)[C@H](C)O2)[C@H](C)[C@@H](O[C@@H]2O[C@H](C)C[C@H](N(C)C)[C@H]2O)[C@](C)(O)C[C@@H](C)CN(C)[C@H](C)[C@@H](O)[C@]1(C)O [azithromycin]	65 h	30.2	24	21	no significant reduction of morbidity or mortality			
CC[C@H]1OC(=O)[C@H](C)[C@@H](O[C@H]2C[C@@](C)(OC)[C@@H](O)[C@H](C)O2)[C@H](C)[C@@H](O[C@@H]2O[C@H](C)C[C@H](N(C)C)[C@H]2O)[C@](C)(O)C[C@@H](C)/C(=N\OCOCCOC)[C@H](C)[C@@H](O)[C@]1(C)O [roxithromycin]						statistically significant benefit	reduced the number of invasive revascularization procedures	statistically significant reduction of soft plaque components
